Reference: patent publication US11814367B2, “Inhibitors of glycogen synthase 1 (GYS1) and methods of use thereof” (Maze Therapeutics, Inc., priority 2021, dated 2023)

Columns and labels:
[1] = target: hGYS1 enzyme (recombinant hGYS1/GN1 protein) (Homo sapiens (Human), UniProt P13807); assay: GYS1 coupled enzyme assay (PK/LDH); type: biochemical; settings: hGYS1/GN1 50 nM, UDP-Glucose 0.8 mM, G6P 1 mM; geometric mean of at least 2 runs
[2] = target: hGYS2 enzyme (recombinant hGYS2/GN1 protein) (Homo sapiens (Human), UniProt P54840); assay: GYS2 coupled enzyme assay (PK/LDH); type: biochemical; settings: geometric mean of at least 2 assay runs on separate days, read-out: Avg_IC50
In short: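 Continuous PK/LDH-coupled readout of NADH loss at 340 nm over 10 min, with 200 nM hGYS2/GN1 and 2 mM each of UDP-glucose, glucose-6-phosphate and PEP, in 50 mM Tris pH 7.5 with 0.2% glycogen and 2.5% DMSO. Slopes were normalized to controls and IC50s fit to a Hill curve from duplicates.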

[3] = system: hGYS1 enzyme / glycogen synthesis in HeLa cells; assay: GYS1 cell based assay (glycogen synthesis, Glucose-glo); design: species or system human; settings: 24 h incubation, 20 mM glucose, geometric mean of at least 2 runs
In short: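 HeLa cells starved 24 h in medium containing only 1× Glutamax were plated onto compound in medium with 20 mM glucose (1% DMSO final) for 24 h, 37 °C, 5% CO2. Acid lysates were Tris-quenched, glucoamylase-digested (pH 5.3, 1 h, 37 °C) and read by Glucose-glo luminescence. IC50 came from Hill fits, as geometric mean of ≥2 runs.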

hGYS1 enzyme (recombinant hGYS1/GN1 protein), sequence (P13807 whole entry): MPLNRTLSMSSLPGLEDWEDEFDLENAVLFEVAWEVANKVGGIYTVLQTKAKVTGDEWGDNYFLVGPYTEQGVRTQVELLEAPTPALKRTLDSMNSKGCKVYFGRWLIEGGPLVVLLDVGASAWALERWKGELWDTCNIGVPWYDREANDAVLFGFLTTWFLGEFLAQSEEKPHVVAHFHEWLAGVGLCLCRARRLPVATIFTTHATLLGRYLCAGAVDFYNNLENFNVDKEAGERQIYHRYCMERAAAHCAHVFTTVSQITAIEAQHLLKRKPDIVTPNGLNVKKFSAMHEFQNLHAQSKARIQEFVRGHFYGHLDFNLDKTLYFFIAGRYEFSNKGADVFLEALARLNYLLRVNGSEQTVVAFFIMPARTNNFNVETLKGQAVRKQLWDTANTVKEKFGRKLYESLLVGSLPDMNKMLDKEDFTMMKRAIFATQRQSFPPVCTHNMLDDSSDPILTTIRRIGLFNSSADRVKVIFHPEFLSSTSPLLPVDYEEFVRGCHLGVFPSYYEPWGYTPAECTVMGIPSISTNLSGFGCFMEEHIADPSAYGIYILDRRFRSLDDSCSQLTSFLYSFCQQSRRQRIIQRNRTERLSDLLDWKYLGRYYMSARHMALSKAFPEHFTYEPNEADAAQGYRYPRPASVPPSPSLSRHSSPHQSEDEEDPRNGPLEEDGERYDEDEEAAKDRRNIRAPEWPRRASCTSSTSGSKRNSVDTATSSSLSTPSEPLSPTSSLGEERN
hGYS1 enzyme (recombinant hGYS1/GN1 protein), sequence (P46976 whole entry partner): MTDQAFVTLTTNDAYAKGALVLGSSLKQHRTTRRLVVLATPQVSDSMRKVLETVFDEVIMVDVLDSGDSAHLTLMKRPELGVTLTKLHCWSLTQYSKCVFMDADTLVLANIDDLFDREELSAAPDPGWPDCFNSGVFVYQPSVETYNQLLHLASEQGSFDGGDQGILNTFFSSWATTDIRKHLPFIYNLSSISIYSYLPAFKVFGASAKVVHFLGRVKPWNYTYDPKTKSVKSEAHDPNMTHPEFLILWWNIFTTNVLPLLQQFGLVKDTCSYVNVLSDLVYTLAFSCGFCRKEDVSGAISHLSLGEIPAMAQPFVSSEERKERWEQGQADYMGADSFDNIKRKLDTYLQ
hGYS2 enzyme (recombinant hGYS2/GN1 protein), sequence (P54840 whole entry): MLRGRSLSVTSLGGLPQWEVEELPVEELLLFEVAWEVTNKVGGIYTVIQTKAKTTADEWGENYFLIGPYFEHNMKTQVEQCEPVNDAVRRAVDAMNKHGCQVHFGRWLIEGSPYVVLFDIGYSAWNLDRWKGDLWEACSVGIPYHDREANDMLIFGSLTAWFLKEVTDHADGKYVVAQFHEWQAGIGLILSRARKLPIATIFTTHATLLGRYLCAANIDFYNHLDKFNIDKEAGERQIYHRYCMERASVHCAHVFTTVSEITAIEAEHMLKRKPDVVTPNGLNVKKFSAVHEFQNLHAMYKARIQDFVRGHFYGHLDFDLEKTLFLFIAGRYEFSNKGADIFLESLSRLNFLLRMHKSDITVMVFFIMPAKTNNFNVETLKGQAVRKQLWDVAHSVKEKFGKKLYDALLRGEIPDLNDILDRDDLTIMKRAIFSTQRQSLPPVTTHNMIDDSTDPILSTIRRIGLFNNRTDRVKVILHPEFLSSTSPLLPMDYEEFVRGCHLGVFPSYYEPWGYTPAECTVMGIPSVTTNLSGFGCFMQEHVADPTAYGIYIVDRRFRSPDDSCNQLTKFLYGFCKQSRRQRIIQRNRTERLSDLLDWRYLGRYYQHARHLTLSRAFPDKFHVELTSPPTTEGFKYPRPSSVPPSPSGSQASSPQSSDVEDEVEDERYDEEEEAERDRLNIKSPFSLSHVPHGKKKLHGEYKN
hGYS2 enzyme (recombinant hGYS2/GN1 protein), sequence (P46976 whole entry partner): as the sequence (P46976 whole entry partner) above

IC50 [1] [µM] | IC50 [2] [µM] | IC50 [3] [µM] | IC50 ([3]; Homo sapiens, HeLa, 24 h) [µM] | Structure (SMILES)
0.642 | > 100 | 11.5 |  | CC(C(=O)N1C[C@H](F)C[C@H]1C(=O)N[C@@H](c1ccccc1)c1ccc(C2(C)CC2)c(F)c1)n1cnc2ccccc21 (single isomer, unassigned) [Compound 567, (2S,4R)-1-[(2R) or (2S)-2-(1H-1,3-benzodiazol-1-yl)propanoyl]-4-fluoro-N-[(S)-[3-fluoro-4-(1-methylcyclopropyl)phenyl](phenyl)methyl]pyrrolidine-2-carboxamide]
0.022 | > 100 | 0.2 |  | CC(C(=O)N1C[C@H](F)C[C@H]1C(=O)N[C@@H](c1ccccc1)c1ccc(C2(C)CC2)c(F)c1)n1cnc2ccccc21 (single isomer, unassigned) [Compound 574, (2S,4R)-1-[(2S) or 2R)-2-(1H-1,3-benzodiazol-1-yl)propanoyl]-4-fluoro-N-[(S)-[3-fluoro-4-(1-methylcyclopropyl)phenyl](phenyl) methyl]pyrrolidine-2-carboxamide]
0.01 | > 100 | 0.15 |  | CC(C(=O)N1C[C@H](F)C[C@H]1C(=O)N[C@@H](c1ccccc1)c1ccc(C2(C)CC2)c(F)n1)n1cnc2ccccc21 (single isomer, unassigned) [Compound 586, (2S,4R)-1-((S) or (R)-2-(1H-benzo[d]imidazol-1-yl)propanoyl)-4-fluoro-N—((S)-(6-fluoro-5-(1-methylcyclopropyl)pyridin-2-yl)(phenyl)methyl)pyrrolidine-2-carboxamide]
0.109 | > 100 | 2.39 |  | CC(C(=O)N1C[C@H](F)C[C@H]1C(=O)N[C@@H](c1ccccc1)c1ccc(C2(C)CC2)c(F)n1)n1cnc2ccccc21 (single isomer, unassigned) [Compound 587, (2S,4R)-1-((R) or (S)-2-(1H-benzo[d]imidazol-1-yl)propanoyl)-4-fluoro-N—((S)-(6-fluoro-5-(1-methylcyclopropyl)pyridin-2-yl)(phenyl)methyl)pyrrolidine-2-carboxamide]
0.176 | > 100 |  | 1.59 | Cc1cc(C(NC(=O)[C@@H]2C[C@@H](F)CN2C(=O)Cc2cnn[nH]2)c2ccccc2)ncc1C(C)C (single isomer, unassigned) [Compound 604, (2S,4R)-4-fluoro-N-[(S) or (R)-[4-methyl-5-(propan-2-yl)pyridin-2-yl](phenyl)methyl]-1-[2-(1H-1,2,3-triazol-5-yl)acetyl]pyrrolidine-2-carboxamide]
0.168 | > 100 |  | 2.13 | CC(C)c1cnc(C(NC(=O)[C@@H]2C[C@@H](F)CN2C(=O)Cc2cnn[nH]2)c2ccccc2)cc1F (single isomer, unassigned) [Compound 605, (2S,4R)-4-fluoro-N-[(S) or (R)-[4-fluoro-5-(propan-2-yl)pyridin-2-yl] (phenyl)methyl]-1-[2-(1H-1,2,3-triazol-5-yl)acetyl]pyrrolidine-2-carboxamide]
0.333 | > 100 |  | 3.29 | Cc1nc(C(NC(=O)[C@@H]2C[C@@H](F)CN2C(=O)Cc2cnn[nH]2)c2ccccc2)ccc1C(C)C (single isomer, unassigned) [Compound 607, (2S,4R)-4-fluoro-N-[(S) or (R)-[6-methyl-5-(propan-2-yl)pyridin-2-yl](phenyl)methyl]-1-[2-(1H-1,2,3-triazol-5-yl)acetyl]pyrrolidine-2-carboxamide]
0.225 | > 100 |  | 1.65 | Cc1nc(C(NC(=O)[C@@H]2C[C@@H](F)CN2C(=O)Cc2nnc(C(F)F)o2)c2ccccc2)ccc1C(C)C (single isomer, unassigned) [Compound 609, (2S,4R)-1-{2-[5-(difluoromethyl)-1,3,4-oxadiazol-2-yl]acetyl}-4-fluoro-N-[(S) or (R)-[6-methyl-5-(propan-2-yl)pyridin-2-yl](phenyl)methyl] pyrrolidine-2-carboxamide]
0.547 | > 100 |  | 5.32 | CC(C)(C)c1ccc(C(NC(=O)[C@@H]2C[C@@H](F)CN2C(=O)Cc2cnn[nH]2)c2ccccc2)nc1 (single isomer, unassigned) [Compound 611, (2S,4R)-N-[(S) or (R)-(5-tert-butylpyridin-2-yl)(phenyl)methyl]-4-fluoro-1-[2-(1H-1,2,3-triazol-5-yl)acetyl]pyrrolidine-2-carboxamide]
0.111 | > 100 |  | 4.07 | CC(C)c1ccc(C(NC(=O)[C@@H]2C[C@@H](F)CN2C(=O)Cc2cnn[nH]2)c2ccn[nH]2)cc1F (single isomer, unassigned) [Compound 623, (2S,4R)-4-fluoro-N-[(R) or (S)-[3-fluoro-4-(propan-2-yl)phenyl](1H-pyrazol-5-yl)methyl]-1-[2-(1H-1,2,3-triazol-5-yl)acetyl]pyrrolidine-2-carboxamide]
0.139 | > 100 |  | 1.14 | Cc1cc(C(NC(=O)[C@@H]2C[C@@H](F)CN2C(=O)Cc2c(C)nn(C)c2C)c2cccnc2N)ccc1C(C)C (single isomer, unassigned) [Compound 625, (2S,4R)-N-[(R) or (S)-(2-aminopyridin-3-yl)[3-methyl-4-(propan-2-yl)phenyl]methyl]-4-fluoro-1-[2-(1,3,5-trimethyl-1H-pyrazol-4-yl)acetyl]pyrrolidine-2-carboxamide]
0.092 | > 100 |  | 2.13 | CC(C)c1ccc(C(NC(=O)[C@@H]2C[C@@H](F)CN2C(=O)Cc2ncco2)c2ccn[nH]2)nc1F (single isomer, unassigned) [Compound 630, (2S,4R)-4-fluoro-N-[(S) or (R)-[6-fluoro-5-(propan-2-yl)pyridin-2-yl](1H-pyrazol-5-yl)methyl]-1-[2-(1,3-oxazol-2-yl)acetyl]pyrrolidine-2-carboxamide]
0.176 | > 100 |  | 13.6 | CC(C)c1ccc(C(NC(=O)[C@@H]2C[C@@H](F)CN2C(=O)Cc2cnn[nH]2)c2ccn3cncc3c2)nc1F (single isomer, unassigned) [Compound 631, (2S,4R)-4-fluoro-N-[(S) or (R)-[6-fluoro-5-(propan-2-yl)pyridin-2-yl]({imidazo[1,5-a]pyridin-7-yl})methyl]-1-[2-(1H-1,2,3-triazol-5-yl)acetyl]pyrrolidine-2-carboxamide]
0.013 | > 100 | 0.66 |  | CC(C)c1ccc(C(NC(=O)[C@@H]2C[C@@H](F)CN2C(=O)Cc2cnn[nH]2)c2ccc3cn[nH]c3c2)nc1F (single isomer, unassigned) [Compound 632, (2S,4R)-4-fluoro-N-[(S) or (R)-[6-fluoro-5-(propan-2-yl)pyridin-2-yl](1H-indazol-6-yl)methyl]-1-[2-(1H-1,2,3-triazol-5-yl)acetyl]pyrrolidine-2-carboxamide]
0.077 | > 100 |  | 1.57 | COc1cccc(C(NC(=O)[C@@H]2C[C@@H](F)CN2C(=O)Cc2cnn[nH]2)c2ccc(C(C)C)c(F)n2)c1 (single isomer, unassigned) [Compound 651, (2S,4R)-4-fluoro-N-[(S) or (R)-[6-fluoro-5-(propan-2-yl)pyridin-2-yl](3-methoxyphenyl)methyl]-1-[2-(1H-1,2,3-triazol-5-yl)acetyl]pyrrolidine-2-carboxamide]
